In patent publication US20240228536A1, “PEPTIDES FOR USE IN SKIN AND HAIR PIGMENTATION” (Follicum AB, priority 2020, published 2024):

Columns and labels:
Type in all cases: cell-based, human
[1] = test system: skin equivalents (SEs); assay: H&E and Warthin Starry staining of skin equivalents; settings: day 20
Description: Two skin equivalents (SEs) were used from one donor.
The analysis was achieved using the Warthin Starry assay using our recently published method (Joly-Tonetti et al 2016) and hematoxylin&eosin (H&E) staining.
The SEs were stained with Warthin Starry stain to visualise and quantify the melanin in sections. The SEs were removed from culture on day 20 and washed in PBS. They were then flash frozen in liquid nitrogen and mounted in OCT for sectioning. 10 μm sections were cut using a cryostat, the sections collected on slides and fixed in Acetone for 10 mins. The OCT was removed from the section by washing in acidulated water for 20 mins. The slides were then incubated in 1% silver nitrate solution for 1 hour at 43° C. […] The slides were stained for 2 mins then the staining was stopped by running the slides under hot tap water. Slides were then mounted using Histomount. Brightfield images were captured using a Nikon Eclipse microscope. Image analysis of the melanin density in sections was performed using Image J and densitometric thresholding. Results are presented in pixel intensity units. For the hematoxylin&eosin (H&E) staining, the SEs were flash frozen, sectioned and fixed as above. The slides were then washed in dH2O to remove the OCT for 20 mins. Haematoxylin was filtered using filter paper into a Coplin jar. Further Coplin jars were also prepared containing the following: Tap Water, Scott's Tap Water, 0.25% Eosin, 50% Ethanol, 70% Ethanol, 90% Ethanol, Ethanol and Histoclear. The slides were then placed into Haematoxylin for 2 mins, and then placed into tap water for 30 secs, Scott's Tap Water for 1 min & Eosin for 2 mins. The slides were then dehydrated through the Ethanol (1 min each) then placed into Histoclear for 2 mins and mounted using Histomount. Brightfield images were captured using a Nikon Eclipse microscope.

[2] = test system: Pigmented skin equivalents (SEs), Melanoderms Mel-300-A (donor) and Mel-300-C-2 (donor); assay: Skin equivalent culture, photographic assessment of pigmentation
Protocol: The skin equivalent surface area was 63.6 mm^2. Other equipment used included SMZ1000 Stereo Microscope (Nikon); UC30 Microscope Camera (Olympus); Phosphate-Buffered Saline (PBS); 6-well Tissue Culture Plates (Sarstedt); Image J software (https://imagej.nih.gov); Paintshop Photo Pro Software (Corel). The Melanoderms were prepared by carefully removing the agarose with sterile forceps and placing them in pre-warmed culture medium (37° C.) for an hour prior to treatment. The Melanoderms were then topically treated (without rubbing) with 25 μl of the various peptides, dissolved in dH2O at 10 mg/ml. […] The SEs were examined and removed from culture when skin darkening became visible. The pigmentation of the Melanoderms was macroscopically assessed by capturing high-resolution images using the Olympus microscope camera. […] They were then placed into a 6-well plate containing 1 ml PBS/well and images captured at ×8 magnification. The images were then processed using Image J & Paintshop Photo Pro software, to determine a quantifiable pixel area, which equated to the level of pigmentation present in the skin equivalent. The image brightness was normalised and the image gray-scaled using Paintshop Photo Pro, then Image J was used to threshold the image. The pigmentation was quantified by assessing total pixel area of pigmentation coverage in a fixed sample area. An ANOVA test (Dunnett's post-test) was used for the statistical analysis. Three different experiments were conducted. In the first, skin equivalents from both donors were included, and in experiment 2 and 3, only the […] donor was included. The SE of the […] donor from the first experiment received 5 treatments of 25 μl of peptide solution at 10 mg/ml; starting on the first day following receipt then on days 3, 5, 9 and 12. Peptides 1 (SEQ ID NO: 2), 3 (SEQ ID NO: 3) and 4 (SEQ ID NO: 4) were tested. The images were taken on Day 14. In experiment 2, peptide 3 and 4 were selected for testing to see if it had any efficacy in reducing melanin content or the distribution of melanin throughout the SE. This time, 5 SEs were used per treatment to improve statistical robustness. The experiment was continued for 20 days with treatments on days 0, 3, 7 and 12 and medium changes every other day. In experiment 3 a more highly pigmented SE ([…] donor melanocytes) was used and with an increased sample size with n=7 per treatment. […] Treatment was repeated on days 5, 9, 12 and 15 with medium changed every other day.

[3] = test system: skin equivalents; assay: Total melanin assay
Protocol: The skin equivalents used in this study was from the same donors as in Example 2. The determination of the total melanin content of the skin equivalent was determined using a total melanin assay.
The total melanin content of the SE was calculated by dissolving the SE in Soluene and reading the absorbance against a standard curve. The SEs were removed from culture on day 20 and washed with PBS. They were then transferred to a glass centrifuge tube and 500 μl Soluene added. The tubes were then covered with […]®, gently vortexed and placed on the Thermomixer at 50° C. for 1 hour. The tubes were then gently vortexed and 150 μl of the sample and synthetic melanin standards pipetted in triplicate into a glass 96 well plate. The absorbance was then measured at 490 nm on a Spectrophotometer. Results are presented in μg/ml against a standard curve. The change of melanin content is expressed as a percentage change versus vehicle control samples. An ANOVA (with Dunnett's post-test) was used for the statistical analysis.
Three experiments were conducted, and the same donors were used as in Example 2. The sample sizes were as follows: experiment 1 n=2, experiment 2 n=4 and experiment 3 n=7. Peptides 1 (SEQ ID NO: 2), 3 (SEQ ID NO: 3) and 4 (SEQ ID NO: 4) were tested.

[4] = experiment 1, donor, 10 mg/ml, 20 days in culture
[5] = experiment 1, donor, 5 topical treatments of 25 μl at 10 mg/ml in dH2O, images Day 14
[6] = experiment 3, more highly pigmented SE (donor), 10 mg/ml, n=7
[7] = experiments 1 and 3, 10 mg/ml topical, day 20

## Asn-Ala-Ala-Met (NAAM; (1)..(4) Peptide 4)
[1]; one of the donors (FIG. 3A)
  melanin content and distribution in SE sections (Warthin Starry): increased the melanin content in the SEs across all layers
[1]; second donor (FIG. 3B-D)
  melanin content and distribution in SE sections (Warthin Starry): visibly increased melanin content
[2]; [4]
  pigmentation of skin equivalents (photographic assessment) compared to vehicle control: somewhat darker and mottled appearance
[2]; [5]
  pigmentation of skin equivalents (photographic assessment) compared to vehicle control: more pigmented compared to the vehicle
[2]; experiment 2, donor, 10 mg/ml, 20 days, n=5
  pigmentation of skin equivalents (photographic assessment) compared to vehicle control: increase in pigmentation compared to the vehicle control samples
[2]; [6]
  pigmentation of skin equivalents (photographic assessment) compared to vehicle control: increase in pigmentation
[3]; experiment 2, 10 mg/ml topical, day 20, n=4
  total melanin content of skin equivalents vs vehicle control: significant increase in melanin content
[3]; [7]
  total melanin content of skin equivalents vs vehicle control: increase in melanin content

## Asn-Ala-His-Met (NAHM; (1)..(4) Peptide 1)
[1]; second donor (FIG. 3B-D)
  melanin content and distribution in SE sections (Warthin Starry): visibly increased melanin content
[2]; [4]
  pigmentation of skin equivalents (photographic assessment) compared to vehicle control: somewhat darker and mottled appearance
[2]; [5]
  pigmentation of skin equivalents (photographic assessment) compared to vehicle control: more pigmented compared to the vehicle
[2]; [6]
  pigmentation of skin equivalents (photographic assessment) compared to vehicle control: increase in pigmentation
[3]; [7]
  total melanin content of skin equivalents vs vehicle control: increase in melanin content
